15 compounds from patent US12297194B2, “N2-phenylpyrimidine-2,4-diamine compounds, and preparation methods and methods of use thereof” (BRIDGE BIOTHERAPEUTICS, INC., priority 2021, dated 2025) can be followed below.

Common to all, as to format: cell-based, murine
The target in one assay is Ba/F3 EGFR Wild-type (Homo sapiens, UniProt P00533). As to the kind of experiment: CellTiter-Glo cell viability, Ba/F3 EGFR wild-type cells. The settings on record: 72 hours, read-out: Ba/F3 EGFR mutant cell (IC50, nM) WT. In short, it runs like this:
(§1)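 IC50s come from CellTiter-Glo ATP luminescence after 72 h of compound exposure (0, 0.3 up to 2000 nM, 10 concentrations). Ba/F3 lines carried wild-type or mutant EGFR and were plated at 2500 cells/well one day before treatment.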
(In general: In ATP-based viability assays light output follows the ATP content of the culture.)

Assay [1] concerns the target Ba/F3 EGFR L858R/C797S mutants (Homo sapiens, UniProt P00533, C797S/L858R, cells depend on it). As to the kind of experiment: CellTiter-Glo cell viability, Ba/F3 EGFR L858R/C797S cells. The conditions noted are these: 72 hours, read-out: Ba/F3 EGFR mutant cell (IC50, nM) L/C. An outline of the steps:
as §1

The target of assay [2] is Ba/F3 EGFR Del19/C797S mutants (Homo sapiens, UniProt P00533, C797S, cells depend on it, form not given). Nature of the assay: CellTiter-Glo cell viability, Ba/F3 EGFR Del19/C797S cells. The settings on record: 72 hours, read-out: Ba/F3 EGFR mutant cell (IC50, nM) D/C. In short, it runs like this: as §1
The target of assay [3] is Ba/F3 EGFR Del19/T790M/C797S mutants (Homo sapiens, UniProt P00533, T790M/C797S, cells depend on it, form not given). Nature of the assay: CellTiter-Glo cell viability, Ba/F3 EGFR Del19/T790M/C797S cells. The conditions noted are these: 72 hours, read-out: Ba/F3 EGFR mutant cell (IC50, nM) D/T/C. An outline of the steps: as §1
Assay [4] has as its target Ba/F3 EGFR Del19/T790M mutants (Homo sapiens, UniProt P00533, T790M, cells depend on it, form not given). As to the kind of experiment: CellTiter-Glo cell viability, Ba/F3 EGFR Del19/T790M cells. The conditions noted are these: 72 hours, read-out: Ba/F3 EGFR mutant cell (IC50, nM) D/T. In short, it runs like this:
as §1

Assay [5] has as its target Ba/F3 EGFR L858R/T790M/C797S mutants (Homo sapiens, UniProt P00533, T790M/C797S/L858R, cells depend on it). Nature of the assay: CellTiter-Glo cell viability, Ba/F3 EGFR L858R/T790M/C797S cells. The settings on record: 72 hours, read-out: Ba/F3 EGFR mutant cell (IC50, nM) L/T/C. In short, it runs like this: as §1

Chain of Ba/F3 EGFR Wild-type (P00533 whole entry, change not shown): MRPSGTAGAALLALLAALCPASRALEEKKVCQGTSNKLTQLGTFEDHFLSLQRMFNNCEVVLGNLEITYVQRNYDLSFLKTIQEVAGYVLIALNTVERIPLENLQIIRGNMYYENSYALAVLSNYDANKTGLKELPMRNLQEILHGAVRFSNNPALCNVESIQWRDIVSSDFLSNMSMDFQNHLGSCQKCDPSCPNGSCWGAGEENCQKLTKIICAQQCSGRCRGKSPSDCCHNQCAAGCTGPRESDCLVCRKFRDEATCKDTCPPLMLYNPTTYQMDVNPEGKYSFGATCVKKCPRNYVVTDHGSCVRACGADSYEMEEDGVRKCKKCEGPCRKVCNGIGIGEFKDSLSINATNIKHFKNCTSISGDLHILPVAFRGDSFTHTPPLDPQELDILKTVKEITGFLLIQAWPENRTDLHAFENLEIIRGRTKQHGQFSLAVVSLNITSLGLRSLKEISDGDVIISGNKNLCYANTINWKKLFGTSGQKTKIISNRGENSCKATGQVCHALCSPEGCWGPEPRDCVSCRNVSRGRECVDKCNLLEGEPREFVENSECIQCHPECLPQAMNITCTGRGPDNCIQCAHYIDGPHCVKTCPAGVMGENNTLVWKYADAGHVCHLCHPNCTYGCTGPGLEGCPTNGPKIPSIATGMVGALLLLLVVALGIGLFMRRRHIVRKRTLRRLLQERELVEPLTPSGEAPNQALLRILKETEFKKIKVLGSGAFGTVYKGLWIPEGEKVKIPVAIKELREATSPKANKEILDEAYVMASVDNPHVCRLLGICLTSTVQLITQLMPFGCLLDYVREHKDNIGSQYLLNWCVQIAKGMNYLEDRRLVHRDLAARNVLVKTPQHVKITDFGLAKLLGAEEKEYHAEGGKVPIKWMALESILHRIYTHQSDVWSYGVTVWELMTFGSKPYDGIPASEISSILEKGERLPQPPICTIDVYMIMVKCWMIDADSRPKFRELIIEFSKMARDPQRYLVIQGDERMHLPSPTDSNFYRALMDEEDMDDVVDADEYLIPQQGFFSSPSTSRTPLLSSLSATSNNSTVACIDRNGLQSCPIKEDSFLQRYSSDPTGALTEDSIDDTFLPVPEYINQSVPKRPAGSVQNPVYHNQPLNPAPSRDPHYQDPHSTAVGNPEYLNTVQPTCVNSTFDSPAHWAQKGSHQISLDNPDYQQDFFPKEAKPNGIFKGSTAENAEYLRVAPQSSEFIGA
Chain of Ba/F3 EGFR L858R/C797S mutants (P00533 whole entry C797S/L858R): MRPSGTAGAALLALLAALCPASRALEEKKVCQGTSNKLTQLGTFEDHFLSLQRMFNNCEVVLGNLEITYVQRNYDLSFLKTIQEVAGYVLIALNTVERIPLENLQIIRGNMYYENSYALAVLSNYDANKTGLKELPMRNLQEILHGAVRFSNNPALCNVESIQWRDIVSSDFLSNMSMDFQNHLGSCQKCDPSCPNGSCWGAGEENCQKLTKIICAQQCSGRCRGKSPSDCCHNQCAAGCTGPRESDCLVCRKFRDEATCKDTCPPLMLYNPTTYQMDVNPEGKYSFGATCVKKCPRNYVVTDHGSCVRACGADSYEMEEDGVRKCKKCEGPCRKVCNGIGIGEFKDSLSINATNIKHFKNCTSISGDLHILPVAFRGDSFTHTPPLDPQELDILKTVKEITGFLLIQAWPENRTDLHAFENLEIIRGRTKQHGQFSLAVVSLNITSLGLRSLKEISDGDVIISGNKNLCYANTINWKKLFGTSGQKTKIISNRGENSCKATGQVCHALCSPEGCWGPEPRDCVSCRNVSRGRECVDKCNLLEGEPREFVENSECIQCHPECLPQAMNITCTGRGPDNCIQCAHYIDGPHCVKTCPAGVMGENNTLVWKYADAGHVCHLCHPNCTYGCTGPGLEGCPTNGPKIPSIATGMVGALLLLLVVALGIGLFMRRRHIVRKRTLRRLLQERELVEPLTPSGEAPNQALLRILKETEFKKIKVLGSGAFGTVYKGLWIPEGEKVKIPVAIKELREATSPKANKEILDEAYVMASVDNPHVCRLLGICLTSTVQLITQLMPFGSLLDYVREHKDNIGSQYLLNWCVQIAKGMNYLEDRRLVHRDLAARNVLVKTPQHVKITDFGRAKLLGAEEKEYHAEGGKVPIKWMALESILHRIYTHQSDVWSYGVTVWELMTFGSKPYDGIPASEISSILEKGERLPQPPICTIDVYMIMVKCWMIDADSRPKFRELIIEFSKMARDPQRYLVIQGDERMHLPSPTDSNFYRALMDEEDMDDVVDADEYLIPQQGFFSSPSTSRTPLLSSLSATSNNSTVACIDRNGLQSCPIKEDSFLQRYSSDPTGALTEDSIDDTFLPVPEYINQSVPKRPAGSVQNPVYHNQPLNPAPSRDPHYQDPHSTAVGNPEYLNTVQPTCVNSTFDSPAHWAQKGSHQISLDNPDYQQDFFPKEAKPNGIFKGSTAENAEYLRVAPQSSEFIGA
Chain of Ba/F3 EGFR Del19/C797S mutants (P00533 with tags, fused parts or gaps DEL746-750/C797S, form open): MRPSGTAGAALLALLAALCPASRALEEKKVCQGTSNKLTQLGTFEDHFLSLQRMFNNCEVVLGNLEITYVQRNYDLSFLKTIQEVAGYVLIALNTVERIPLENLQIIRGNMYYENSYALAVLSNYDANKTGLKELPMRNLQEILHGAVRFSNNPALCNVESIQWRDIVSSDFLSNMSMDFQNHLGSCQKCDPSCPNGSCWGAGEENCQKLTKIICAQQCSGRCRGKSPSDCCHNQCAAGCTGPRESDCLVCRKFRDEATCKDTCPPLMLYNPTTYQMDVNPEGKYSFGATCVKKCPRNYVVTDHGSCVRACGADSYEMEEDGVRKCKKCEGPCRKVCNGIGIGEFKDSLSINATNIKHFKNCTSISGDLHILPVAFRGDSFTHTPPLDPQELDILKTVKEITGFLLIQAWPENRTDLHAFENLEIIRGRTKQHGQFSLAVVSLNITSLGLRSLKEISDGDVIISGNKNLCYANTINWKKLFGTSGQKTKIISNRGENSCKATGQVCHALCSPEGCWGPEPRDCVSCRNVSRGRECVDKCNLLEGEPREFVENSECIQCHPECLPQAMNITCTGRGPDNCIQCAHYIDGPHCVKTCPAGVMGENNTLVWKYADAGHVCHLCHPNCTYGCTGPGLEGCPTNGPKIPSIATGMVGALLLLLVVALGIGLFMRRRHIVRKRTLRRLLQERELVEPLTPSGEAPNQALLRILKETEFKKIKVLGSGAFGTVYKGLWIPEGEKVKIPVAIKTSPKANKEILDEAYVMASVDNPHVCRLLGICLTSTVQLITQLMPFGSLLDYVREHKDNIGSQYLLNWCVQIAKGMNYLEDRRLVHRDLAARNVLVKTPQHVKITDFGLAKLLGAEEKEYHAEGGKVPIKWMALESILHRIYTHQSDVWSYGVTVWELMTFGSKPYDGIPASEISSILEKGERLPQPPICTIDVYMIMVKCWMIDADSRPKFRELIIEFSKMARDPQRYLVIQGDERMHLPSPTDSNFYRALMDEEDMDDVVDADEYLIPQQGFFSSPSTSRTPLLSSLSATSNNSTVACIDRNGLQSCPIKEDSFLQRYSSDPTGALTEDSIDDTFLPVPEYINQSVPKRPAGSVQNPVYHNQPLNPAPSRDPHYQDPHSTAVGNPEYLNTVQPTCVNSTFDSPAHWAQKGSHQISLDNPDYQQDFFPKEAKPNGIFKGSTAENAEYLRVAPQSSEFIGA
Chain of Ba/F3 EGFR Del19/T790M/C797S mutants (P00533 with tags, fused parts or gaps DEL746-750/T790M/C797S, form open): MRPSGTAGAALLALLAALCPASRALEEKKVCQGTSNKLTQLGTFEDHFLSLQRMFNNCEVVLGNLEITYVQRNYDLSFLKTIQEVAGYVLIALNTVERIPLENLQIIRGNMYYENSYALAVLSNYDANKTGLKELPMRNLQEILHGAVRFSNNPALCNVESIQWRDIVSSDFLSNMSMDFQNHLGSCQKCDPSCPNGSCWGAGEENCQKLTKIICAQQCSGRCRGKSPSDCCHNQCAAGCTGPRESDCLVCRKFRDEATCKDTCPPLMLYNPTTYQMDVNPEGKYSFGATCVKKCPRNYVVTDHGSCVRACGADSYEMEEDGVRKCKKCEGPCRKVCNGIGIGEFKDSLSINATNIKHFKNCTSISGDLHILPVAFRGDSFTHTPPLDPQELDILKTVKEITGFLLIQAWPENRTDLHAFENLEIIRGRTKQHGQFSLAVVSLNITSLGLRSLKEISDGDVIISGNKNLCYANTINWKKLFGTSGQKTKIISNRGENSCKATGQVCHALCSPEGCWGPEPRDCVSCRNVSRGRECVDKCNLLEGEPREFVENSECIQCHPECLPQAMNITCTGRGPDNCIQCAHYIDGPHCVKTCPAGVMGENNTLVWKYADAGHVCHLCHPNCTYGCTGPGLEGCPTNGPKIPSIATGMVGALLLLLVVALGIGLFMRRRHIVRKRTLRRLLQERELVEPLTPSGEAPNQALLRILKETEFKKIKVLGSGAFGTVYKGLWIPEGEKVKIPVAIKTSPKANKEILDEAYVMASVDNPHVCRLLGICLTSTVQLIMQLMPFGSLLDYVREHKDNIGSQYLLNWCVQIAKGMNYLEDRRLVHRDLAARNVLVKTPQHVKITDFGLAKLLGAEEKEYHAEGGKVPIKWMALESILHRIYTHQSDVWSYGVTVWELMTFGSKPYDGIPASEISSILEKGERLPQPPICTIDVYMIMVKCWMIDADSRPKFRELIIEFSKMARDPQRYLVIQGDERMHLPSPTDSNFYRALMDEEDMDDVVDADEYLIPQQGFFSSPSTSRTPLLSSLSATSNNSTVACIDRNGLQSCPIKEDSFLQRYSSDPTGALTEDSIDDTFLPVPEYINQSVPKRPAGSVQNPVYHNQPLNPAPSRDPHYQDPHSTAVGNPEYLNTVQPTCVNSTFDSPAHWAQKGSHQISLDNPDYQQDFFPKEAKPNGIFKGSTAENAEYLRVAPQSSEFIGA

Consider `CCc1cc(Nc2ncc(Cl)c(Nc3ccc4nccnc4c3N(C)S(C)(=O)=O)n2)c(OC)cc1N1CCC(N2CCCC2)CC1` [Example A43, N-(6-((5-chloro-2-((5-ethyl-2-methoxy-4-(4-(pyrrolidin-1-yl)piperidin-1-yl)phenyl)amino)pyrimidin-4-yl)amino)quinoxalin-5-yl)-N-methylmethanesulfonamide], for which the GI50 on Ba/F3 EGFR Wild-type worked out at 507 nM; in assay [1] it was 28 nM; in assay [2], 6 nM; in assay [3], 5 nM; in assay [4], 8 nM; in assay [5], 35 nM.
`CCc1cc(Nc2ncc(Br)c(Nc3ccc4nccnc4c3N(C)S(C)(=O)=O)n2)c(OC)cc1N1CCC(N2CCCCC2)CC1` [Example A44, N-(6-((2-((4-([1,4′-bipiperidin]-1′-yl)-5-ethyl-2-methoxyphenyl)amino)-5-bromopyrimidin-4-yl)amino)quinoxalin-5-yl)-N-methylmethanesulfonamide]: the GI50 on Ba/F3 EGFR Wild-type is greater than 2000 nM; in assay [1] it was 94 nM; in assay [2] it was 6 nM; in assay [3], 10 nM; in assay [4], 12 nM; in assay [5], 38 nM.
For `CCc1cc(Nc2ncc(Cl)c(Nc3ccc4nccnc4c3NS(C)(=O)=O)n2)c(OC)cc1N1CCC(N2CC3CCC2CN3C)CC1` (stereo not drawn) [Example A45, N-(6-((5-chloro-2-((5-ethyl-2-methoxy-4-(4-(5-methyl-2,5-diazabicyclo[2.2.2]octan-2-yl)piperidin-1-yl)phenyl)amino)pyrimidin-4-yl)amino)quinoxalin-5-yl)methanesulfonamide], the GI50 worked out at 734 nM at Ba/F3 EGFR Wild-type; 103 nM in assay [1]; 10 nM in assay [2]; 7 nM in assay [3]; 9 nM in assay [4]; 71 nM in assay [5].
Consider `CCc1cc(Nc2ncc(Br)c(Nc3ccc4nccnc4c3NS(C)(=O)=O)n2)c(OC)cc1N1CCC(N2CC3CCC2CN3C)CC1` (stereo not drawn) [Example A46, N-(6-((5-bromo-2-((5-ethyl-2-methoxy-4-(4-(5-methyl-2,5-diazabicyclo[2.2.2]octan-2-yl)piperidin-1-yl)phenyl)amino)pyrimidin-4-yl)amino)quinoxalin-5-yl)methanesulfonamide], for which the GI50 on Ba/F3 EGFR Wild-type was 739 nM; in assay [1], 113 nM; in assay [2], 12 nM; in assay [3], 8 nM; in assay [4], 7 nM; in assay [5], 43 nM.
As for `CCc1cc(Nc2ncc(Cl)c(Nc3ccc4nccnc4c3N(C)S(C)(=O)=O)n2)c(OC)cc1N1CCC(N2CC3CCC2CN3C)CC1` (stereo not drawn) [Example A47, N-(6-((5-chloro-2-((5-ethyl-2-methoxy-4-(4-(5-methyl-2,5-diazabicyclo[2.2.2]octan-2-yl)piperidin-1-yl)phenyl)amino)pyrimidin-4-yl)amino)quinoxalin-5-yl)-N-methylmethanesulfonamide], the GI50 at Ba/F3 EGFR Wild-type came out at 730 nM; in assay [1], 125 nM; in assay [2] it was 7 nM; in assay [3] it was 25 nM; in assay [4] it was 17 nM; in assay [5], 64 nM.
Consider `CCc1cc(Nc2ncc(Br)c(Nc3ccc4nccnc4c3N(C)S(C)(=O)=O)n2)c(OC)cc1N1CCC(N2CC3CCC2CN3C)CC1` (stereo not drawn) [Example A48, N-(6-((5-bromo-2-((5-ethyl-2-methoxy-4-(4-(5-methyl-2,5-diazabicyclo[2.2.2]octan-2-yl)piperidin-1-yl)phenyl)amino)pyrimidin-4-yl)amino)quinoxalin-5-yl)-N-methylmethanesulfonamide], for which the GI50 on Ba/F3 EGFR Wild-type came to 601 nM; in assay [1], 112 nM; in assay [2], 6 nM; in assay [3], 17 nM; in assay [4] it was 9 nM; in assay [5], 28 nM.
For the compound `CCc1cc(Nc2ncc(Br)c(Nc3ccc4nccnc4c3N(C)S(C)(=O)=O)n2)c(OC)cc1N1CCN(C2CCN(C)CC2)CC1` [Example A49, N-(6-((5-bromo-2-((5-ethyl-2-methoxy-4-(4-(1-methylpiperidin-4-yl)piperazin-1-yl)phenyl)amino)pyrimidin-4-yl)amino)quinoxalin-5-yl)-N-methylmethane sulfonamide], the GI50 at Ba/F3 EGFR Wild-type was 243 nM; in assay [1], 15 nM; in assay [2], 10 nM; in assay [3], 4 nM; in assay [4], 4 nM; in assay [5], 64 nM.
On to `COc1cc(N2CCC(N(C)C)CC2)c(C)cc1Nc1ncc(Br)c(Nc2ccc3nccnc3c2NS(C)(=O)=O)n1` [Example B1, N-(6-((5-bromo-2-((4-(4-(dimethylamino)piperidin-1-yl)-2-methoxy-5-methylphenyl)amino)pyrimidin-4-yl)amino)quinoxalin-5-yl)methanesulfonamide], for which the GI50 on Ba/F3 EGFR Wild-type came to 302 nM; in assay [1], 64 nM; in assay [2] it was 38 nM; in assay [3] it was 7 nM; in assay [4], 8 nM; in assay [5] it was 28 nM.
Turning to `COc1cc(N2CCC(N(C)C)CC2)c(C)cc1Nc1ncc(Br)c(Nc2ccc3nccnc3c2N(C)S(C)(=O)=O)n1` [Example B7, N-(6-((5-bromo-2-((4-(4-(dimethylamino)piperidin-1-yl)-2-methoxy-5-methylphenyl)amino)pyrimidin-4-yl)amino)quinoxalin-5-yl)-N-methylmethanesulfonamide], the GI50 amounted to 595 nM at Ba/F3 EGFR Wild-type; 98 nM in assay [1]; 34 nM in assay [2]; 8 nM in assay [3]; 21 nM in assay [4]; 33 nM in assay [5].
Consider `COc1cc(C2CCN(C(C)=O)CC2)ccc1Nc1ncc(Cl)c(Nc2ccc3nccnc3c2NS(C)(=O)=O)n1` [Example B8, N-(6-((2-((4-(1-acetylpiperidin-4-yl)-2-methoxyphenyl)amino)-5-chloropyrimidin-4-yl)amino)quinoxalin-5-yl)methanesulfonamide], for which the GI50 on Ba/F3 EGFR Wild-type came out at 729 nM; in assay [1] it was 554 nM; in assay [2], 320 nM; in assay [3], 292 nM; in assay [4] it was 424 nM; in assay [5], 861 nM.
For the compound `COc1cc(C2CCNCC2)c(C)cc1Nc1ncc(Br)c(Nc2ccc3nccnc3c2NS(C)(=O)=O)n1` [Example B11, N-(6-((5-bromo-2-((2-methoxy-5-methyl-4-(piperidin-4-yl)phenyl)amino)pyrimidin-4-yl)amino)quinoxalin-5-yl)methanesulfonamide], the GI50 on Ba/F3 EGFR Wild-type was determined as 1270 nM; in assay [1], 781 nM; in assay [2], 583 nM; in assay [3] it was 725 nM; in assay [4] it was 443 nM; in assay [5], 264 nM.
Turning to `CCCc1cc(Nc2ncc(Cl)c(Nc3ccc4nccnc4c3NS(C)(=O)=O)n2)c(OC)cc1N1CCC(N(C)C)CC1` [Example B12, N-(6-((5-chloro-2-((4-(4-(dimethylamino)piperidin-1-yl)-2-methoxy-5-propylphenyl)amino)pyrimidin-4-yl)amino)quinoxalin-5-yl)methanesulfonamide], the GI50 at Ba/F3 EGFR Wild-type came to 431 nM; in assay [1], 87 nM; in assay [2], 29 nM; in assay [3], 104 nM; in assay [4], 19 nM; in assay [5] it was 36 nM.
For the compound `CCCc1cc(Nc2ncc(Br)c(Nc3ccc4nccnc4c3NS(C)(=O)=O)n2)c(OC)cc1N1CCC(N(C)C)CC1` [Example B13, N-(6-((5-bromo-2-((4-(4-(dimethylamino)piperidin-1-yl)-2-methoxy-5-propylphenyl)amino)pyrimidin-4-yl)amino)quinoxalin-5-yl)methanesulfonamide], the GI50 on Ba/F3 EGFR Wild-type amounted to 468 nM; in assay [1], 114 nM; in assay [2], 41 nM; in assay [3], 60 nM; in assay [4] it was 13 nM; in assay [5], 22 nM.
Take `CCc1cc(Nc2ncc(Br)c(Nc3ccc4nccnc4c3N(C)S(C)(=O)=O)n2)c(OC)cc1N1CCC(N(C)C)CC1` [Example B14, N-(6-((5-bromo-2-((4-(4-(dimethylamino)piperidin-1-yl)-5-ethyl-2-methoxyphenyl)amino)pyrimidin-4-yl)amino)quinoxalin-5-yl)-N-methylmethanesulfonamide]: the GI50 at Ba/F3 EGFR Wild-type was 427 nM; in assay [1] it was 41 nM; in assay [2], 6 nM; in assay [3], 8 nM; in assay [4] it was 3 nM; in assay [5], 23 nM.
For `COc1cc(C2CCNCC2)ccc1Nc1ncc(Cl)c(Nc2ccc3nccnc3c2NS(C)(=O)=O)n1` [Example B15, N-(6-((5-chloro-2-((2-methoxy-4-(piperidin-4-yl)phenyl)amino)pyrimidin-4-yl)amino)quinoxalin-5-yl)methanesulfonamide], the GI50 is greater than 2000 nM at Ba/F3 EGFR Wild-type; 1540 nM in assay [1]; 581 nM in assay [2]; 746 nM in assay [3]; 1310 nM in assay [4]; 2140 nM in assay [5].
